From ChEMBL document CHEMBL1857833, “Screening and optimization of specific chemical series against human African Trypanosomiasis (HAT)”
In brackets after ≈: the same amount, converted by molar mass. Several values for one entry are separate records, joined by “and”; a condition that tells them apart may be missing. Equal entries are not always repeated.

Legend:
[1] = DNDI: Cytotoxicity against L929 mouse fibroblasts, 72 hour.; type: toxicity, cell-based; settings: mouse, L929 mouse fibroblasts
[2] = system: Trypanosoma brucei; assay: DNDI: Inhibition of Human African Trypanosomiasis, Cross 22, in vitro; type: functional, organism-based
[3] = system: Trypanosoma brucei; assay: DNDI: Inhibition of Human African Trypanosomiasis, SBRI 427, in vitro; type: functional, organism-based
[4] = DNDI: Cytotoxicity against L929 mouse fibroblasts, CYTO-SP, 24 hour; type: toxicity, cell-based; settings: mouse, L929 mouse fibroblasts
[5] = in vitro; settings: mouse, liver microsomes, t (1 / 2)
Description: DNDI: half life in mouse liver microsomes at a concentration of 1uM

[6] = DNDI: Solubility in phosphate buffered saline at pH7.4 measured by nephelometry at room temperature (NEPH-RT); type: physicochemical; settings: pH 7.4
[7] = DNDI: Lipophilicity measured in Chromatographic hydrophobicity index (CHI) assay, pH 7.4; type: physicochemical; settings: buffer
[8] = mouse, microsomes, 1 µM
Description: DNDI: in vitro intrinsic clearance in mouse liver microsomes at a concentration of 1uM

[9] = system: Trypanosoma brucei rhodesiense; assay: DNDI: Inhibition of Human African Trypanosomiasis (HAT), STIB 900, in vitro; type: functional, organism-based
[10] = system: Plasmodium falciparum; assay: DNDI: Inhibition of the malaria parasite Plasmodium falciparum, in vitro; type: functional, organism-based; settings: K1
[11] = system: Trypanosoma cruzi; assay: DNDI: Inhibition of Chagas Disease parasite Trypanosoma cruzi (Tulahuen LacZ, Clone C4), in vitro.; type: functional, organism-based
[12] = DNDI: Cytotoxicity against L-6 rat myoblasts from skeletal muscle cells; type: toxicity, cell-based, L6; settings: L-6 rat skeletal muscle myoblasts
[13] = system: Leishmania donovani; assay: DNDI: Inhibition of formation of Leishmania donovani (strain MHOM/ET/67/L82) axenic amastigotes, in vitro.; type: functional, organism-based
[14] = system: Trypanosoma brucei; assay: DNDI: Mean survival time in days (MSD) of mice after intraperitoneal injection of Human African Trypanosomiasis (HAT), EATRO 110, in vivo at 20 mg/kg/day for 4 days.; type: functional, Mus musculus
[15] = Trypanosoma brucei, SBRI 427, read-out: IC50

IC50 [2] [µg/mL] | IC50 [3] | IC50 [3, 15] [µg/mL] | half-life at 1 µM [5] [min] | solubility kinetic [6] [µM] | chromatographic logD [7] | CLint in vitro [8] [µL/min/mg] | IC50 [9] [µg/mL] | IC50 [10] [µg/mL] | IC50 [11] [µg/mL] | IC50 [13] [µg/mL] | SMILES | IC50 at 72 h [1] [µg/mL] | IC50 at 24 h [4] [µg/mL] | IC50 [12] [µg/mL] | MSD [14] [days]
0.85 (≈ 2.55 µM) | 0.86 µg/mL and 1.52 µg/mL | 1.18 (≈ 3.54 µM) |  |  |  |  |  |  |  |  | CC1CC(NCc2coc(-c3ccc(Cl)cc3)n2)CC(C)(C)C1 (configuration not stated) | < 3.13 | > 50 |  | 
2.29 (≈ 6.68 µM) | 2.01 µg/mL and 2.82 µg/mL | 1.8 (≈ 5.25 µM) |  |  |  |  |  |  |  |  | Clc1ccc(-c2nc(CNC3[C@H]4C[C@@H]5C[C@@H](C[C@H]3C5)C4)co2)cc1 (some centres not stated) | 6.73 (≈ 19.6 µM) | > 50 |  | 
 |  | > 5 | 5 | 50 (≈ 14 µg/mL) | 4.46 | 157 |  |  |  |  | O/N=C(/c1ccccc1-c1ccccc1)N1CCCCC1 |  | > 50 |  | 
 |  | 3.46 (≈ 11.3 µM) | 14 | 25 (≈ 7.66 µg/mL) | 3.98 | 59 |  |  |  |  | O/N=C(/Nc1ccc(F)cc1)c1ccccc1-c1ccccc1 |  | > 50 |  | 
0.37 (≈ 0.957 µM) | 0.19 µg/mL (≈ 0.492 µM) | 0.24 (≈ 0.621 µM) |  |  |  |  |  |  |  |  | C[C@@H]1[C@H]2C[C@@H](C[C@H]1NCc1coc(-c3ccc(-c4ccccc4)cc3)n1)C2(C)C | < 3.13 | 8.15 (≈ 21.1 µM) |  | 
3.56 (≈ 10.2 µM) | 3.22 µg/mL and 1.69 µg/mL and 3.92 µg/mL |  |  |  |  |  |  |  |  |  | Brc1ccc(-c2nc(CNC3CCCCCC3)co2)cc1 | 15.7 (≈ 44.9 µM) | > 50 |  | 
 |  | 1.23 (≈ 3.89 µM) |  |  |  |  | 20.9 (≈ 66.1 µM) | 4.43 (≈ 14 µM) | 5.38 (≈ 17 µM) | 4.96 (≈ 15.7 µM) | CCc1cccc(N/C(=N/O)c2ccccc2-c2ccccc2)c1 | 2.4 (≈ 7.59 µM) | 25.3 (≈ 80 µM) | 9.67 (≈ 30.6 µM) | 
 |  | > 5 |  |  |  |  | > 90 | > 5 | > 30 | > 90 | O/N=C1/CCCCCN1 | > 10 | > 50 | > 90 | 
 |  | 2.72 (≈ 11.2 µM) | 7 | > 200 | 3.1 | 121 |  |  |  |  | COc1ccc(/C(=N\O)Nc2ccccc2)cc1 |  | > 50 |  | 
0.82 (≈ 2.11 µM) | 0.42 µg/mL and 0.92 µg/mL and 0.85 µg/mL |  |  |  |  |  |  |  |  |  | C[C@@H]1[C@H]2C[C@@H](C[C@H]1NCc1coc(-c3ccc(Br)cc3)n1)C2(C)C | < 3.13 | > 50 |  | 
> 5 |  | > 5 |  |  |  |  |  |  |  |  | C[C@@H]1[C@H]2C[C@@H](C[C@H]1NCc1coc(-c3ccc(C(C)(C)C)cc3)n1)C2(C)C | > 50 | > 50 |  | 
 |  | 3.68 (≈ 10.8 µM) |  |  |  |  | 0.487 (≈ 1.43 µM) | 4.3 (≈ 12.6 µM) | 22.2 (≈ 65 µM) | 16 (≈ 46.9 µM) | CCCCCC(C)NCc1coc(-c2ccc(Cl)c(Cl)c2)n1 (configuration not stated) | 4.75 (≈ 13.9 µM) | 17 (≈ 49.8 µM) | 13.3 (≈ 39 µM) | 
0.44 (≈ 1.35 µM) | 0.3 µg/mL and 0.49 µg/mL | 0.39 (≈ 1.19 µM) |  | 25 (≈ 8.16 µg/mL) | 5.41 |  |  |  |  |  | CC(C)(C)c1ccc(-c2nc(CNC3CCCCCC3)co2)cc1 | < 3.13 | > 50 |  | 
0.49 (≈ 1.49 µM) | 0.86 µg/mL and 0.42 µg/mL |  | 51 |  |  | 17 | 0.302 (≈ 0.919 µM) | 0.694 (≈ 2.11 µM) | 2.8 (≈ 8.52 µM) | 6.61 (≈ 20.1 µM) | CCCCCC(C)NCc1coc(-c2ccc(C(C)(C)C)cc2)n1 (configuration not stated) | 1.36 (≈ 4.14 µM) | 9 (≈ 27.4 µM) | 3.25 (≈ 9.89 µM) | 
 |  | 4.72 (≈ 17.3 µM) |  |  |  |  | 0.823 (≈ 3.02 µM) | 1.21 (≈ 4.44 µM) | 14.6 (≈ 53.6 µM) | 29.5 (≈ 108 µM) | CCCCCC(C)NCc1coc(-c2ccccc2)n1 (configuration not stated) | > 10 | 32 (≈ 117 µM) | 14.3 (≈ 52.4 µM) | 
> 5 |  | > 5 |  |  |  |  |  |  |  |  | CC1CC(NCc2coc(-c3ccc(C(C)(C)C)cc3)n2)CC(C)(C)C1 (configuration not stated) | > 50 | > 50 |  | 
> 5 |  | > 5 |  |  |  |  |  |  |  |  | CC1(C)[C@H]2CC[C@@H](CNCc3coc(-c4ccc(Br)cc4)n3)[C@@H]1C2 | 50 (≈ 128 µM) | > 50 |  | 

SMILES | IC50 [2] [µg/mL] | IC50 [3] | IC50 [3, 15] [µg/mL] | half-life at 1 µM [5] [min] | solubility kinetic [6] [µM] | chromatographic logD [7] | CLint in vitro [8] [µL/min/mg] | IC50 [9] [µg/mL] | IC50 [10] [µg/mL] | IC50 [11] [µg/mL] | IC50 [13] [µg/mL] | IC50 at 72 h [1] [µg/mL] | IC50 at 24 h [4] [µg/mL] | IC50 [12] [µg/mL] | MSD [14] [days]
Cc1ccc(CNC(CCc2ccccc2)c2nc(-c3ccccc3)c(N3CCCCC3)o2)cc1 (configuration not stated) |  |  | > 5 |  |  |  |  |  |  |  |  | > 10 |  |  | 4
CCc1ccc(N/C(=N/O)c2ccc(OC)cc2)cc1 |  |  | 3.69 (≈ 13.6 µM) |  |  |  |  |  |  |  |  |  | > 50 |  | 4.5
O/N=C(\Nc1cccc(F)c1)c1cccnc1Oc1c(F)cccc1F |  |  | > 5 |  |  |  |  |  |  |  |  | > 10 |  |  | 4
